As usually defined, the IC50 is the point on the concentration scale where inhibition reaches its midpoint.

Assay [1] deals with human AKT1 (Homo sapiens (Human), UniProt P31749). The experiment in a line: AKT1 kinase activity inhibition (TR-FRET, biotinylated Crosstide substrate). It counts as biochemical. The note with it: preincubation 120 min at 25° C.; ATP 150 μM; Crosstide 500 nM. As for the experimental part:
(§1) Preparation of AKT1 and AKT2 and measurement of in vitro inhibitory activity of the above-mentioned compounds against AKT1 and AKT2 kinase activity were carried out with reference to the method disclosed in Biochem. J. Vol. 385, pp 399-408 (2005). In the preparation of AKT1 and AKT2, human AKT1 and AKT2 to which a middle T antigen tag was added were expressed in Sf 9 insect cells, and then AKT1 and AKT2 were prepared following affinity purification and activation by PDK1. The prepared AKT1 and AKT2 were stored at −80° C. until the time of measurement of inhibitory activity of the compounds. In the measurement of inhibitory activity of the compounds, AKT1 or AKT2 and each compound of the present invention were preincubated at 25° C. for 120 minutes in a buffer solution for reaction (15 mM Tris-HCl pH 7.5, 0.01% Tween-20, 2 mM DTT). As a substrate, biotinylated Crosstide (bioton-KGSGSGRPRTSSFAEG), MgCl2, and ATP were added to final concentrations of 500 nM, 10 mM, and 150 μM, respectively, and reactions were carried out at 25° C. for 60 minutes. The reactions were stopped by adding EDTA to a final concentration of 80 mM. Then, a detection liquid in which an Eu-labeled anti-phosphorylation Crosstide antibody (PerkinElmer) and SureLight APC-SA (PerkinElmer) were contained at a final concentration of 0.5 nM and […], respectively, was added, and reactions were carried out at room temperature for 2 hours. Finally, the amount of fluorescence at the time of irradiation of excitation light having a wavelength of 337 nm was measured at dual wavelengths of 620 nm and 665 nm by PHERAstar FS (BMG LABTECH). The amount of phosphorylation was determined from the ratio of the fluorescence amounts at the dual wavelengths. The compound concentration at which phosphorylation can be inhibited by 50% was defined as […] (nM), and the results are shown in Table 4 below.
A general note: Time-resolved FRET reads energy transfer from a long-lived donor to a nearby acceptor.

The target of assay [2] is human AKT2 (Homo sapiens (Human), UniProt P31751). The experiment in a line: AKT2 kinase activity inhibition (TR-FRET, biotinylated Crosstide substrate). The format is biochemical. The note with it: preincubation 120 min at 25° C.; ATP 150 μM; Crosstide 500 nM. On the procedure: as §1
human AKT2, sequence (P31751 whole entry): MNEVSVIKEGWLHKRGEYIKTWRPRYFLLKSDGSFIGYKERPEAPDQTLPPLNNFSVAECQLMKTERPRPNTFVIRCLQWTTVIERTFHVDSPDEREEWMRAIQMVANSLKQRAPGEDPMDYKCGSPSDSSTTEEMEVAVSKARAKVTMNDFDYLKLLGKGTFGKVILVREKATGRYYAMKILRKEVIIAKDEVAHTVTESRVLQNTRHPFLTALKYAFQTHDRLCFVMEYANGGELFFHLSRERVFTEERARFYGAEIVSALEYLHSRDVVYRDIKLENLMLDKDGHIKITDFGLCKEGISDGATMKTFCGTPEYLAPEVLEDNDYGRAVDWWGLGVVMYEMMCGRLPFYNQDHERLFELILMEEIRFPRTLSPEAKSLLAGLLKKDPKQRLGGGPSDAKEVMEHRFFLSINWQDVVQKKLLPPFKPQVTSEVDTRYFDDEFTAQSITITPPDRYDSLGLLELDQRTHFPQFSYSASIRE
Assay [3] concerns AKT Ser473 phosphorylation. The experiment in a line: Phosphorylated AKT (Ser473) inhibitory activity in cultured cell A2780 (Meso Scale Discovery assay). The note with it: A2780 cells, 3 hours treatment; average±standard deviation of three independent runs. The format is cell-based. On the procedure:
(§2) To evaluate the inhibitory activity of the above compounds against AKT activity, AKT Ser 473 phosphorylation and phosphorylation of S6 ribosomal protein (S6RP) (a downstream factor of Akt signal) at Ser240/Ser244, which serve as indices for the activation status of AKT, were measured in extracts of cultured cells which had been treated with the above compounds. For the measurement, assays (manufactured by Meso Scale Discovery) utilizing electrochemiluminescence based on the ELISA principle were used for both AKT Ser473 and S6RP Ser240/Ser244.
(§3) In 10% FBS-containing RPMI1640 medium (Invitrogen), ovarian cancer-derived A2780 cells in the logarithmic growth phase were seeded at 4.5×10^4 cells/150 μL/well into polylysine coated 96-well flat-bottom plates, and cultured for one day in an incubator at 5% CO2, 37° C., and 100% humidity.
(§4) Each compound of the present invention was supplied as a stock solution prepared at a concentration of 10 mM in DMSO. Using this solution, a dilution series was prepared in DMSO solvent at 200-fold of the final concentrations (10, 3, 1, 0.3, 0.1, 0.03, 0.01, 0.003 μM). The day after the cells were seeded, the compound dilution series at a 200-fold concentration was diluted 50-fold in medium for cell culture. To each well of the aforementioned A2780 cell culture plates, 50 μL of the diluted compound dilution series was added. The plates were then placed back in the incubator, and the culture was continued for 3 hours at 5% CO2, 37° C., and 100% humidity.
(§5) Meso Scale Discovery's 96-Well Multi-Spot Phospho-AKT (Ser473) Assay (K151CAA-3) and Phospho (Ser240/244)/Total S6RP Assay (K11139D-2) were used. In advance, a necessary amount of the supplied cell extract buffer was dispensed, and protease inhibitor cocktail and protein phosphatase inhibitor cocktail were added thereto, and kept cold on ice. The culture plates of the cells cultured with the compounds for 3 hours were taken out and the medium was removed. 100 μL of the cell extract buffer kept cold was added per well, followed by extraction by shaking at 300 r.p.m. for 1 hour using a plate shaker while maintaining a temperature of 4° C. Using the obtained extracts at 40 μL/well for the Phospho-AKT (Ser473) Assay and at 15 μL/well for the Phospho(Ser240/244)/Total S6RP Assay, reactions were conducted at 4° C. overnight with shaking at 300 r.p.m. according to the document attached to the kits. The next day, after the wells were washed three times with the supplied wash buffer, 50 μL/well of SULFO-TAG™ sandwich antibody solution was added, and reactions were carried out at room temperature for 1 hour. The wells were washed with the wash buffer three times, and 150 μL of the supplied Read Buffer T was added to each well. The amounts of phosphorylation of AKT and S6RP were measured by a SECTOR Imager 6000 plate reader (manufactured by Meso Scale Discovery) within 30 minutes of the Read Buffer T addition.
(§6) The extraction buffer-only background was subtracted from all of the measurement values, and AKT and S6RP phosphorylation signals in the control cell extract treated with only DMSO were defined as 100%. The compound concentrations and the levels of phosphorylated AKT and S6PR (expressed as a percentage relative to the control) in each concentration were plotted, and IC50 concentration (nM) that achieves 50% inhibition of the control was determined.

Assay [4] deals with S6 ribosomal protein (S6RP) Ser240/Ser244 phosphorylation. In words: Phosphorylated S6RP (Ser240/Ser244) inhibitory activity in cultured cell A2780 (Meso Scale Discovery assay). The format is cell-based. Particulars: A2780 cells, 3 hours treatment; average±standard deviation of three independent runs. As for the experimental part:
as §2, §3, §4, §5, §6

human AKT1, sequence (P31749 whole entry): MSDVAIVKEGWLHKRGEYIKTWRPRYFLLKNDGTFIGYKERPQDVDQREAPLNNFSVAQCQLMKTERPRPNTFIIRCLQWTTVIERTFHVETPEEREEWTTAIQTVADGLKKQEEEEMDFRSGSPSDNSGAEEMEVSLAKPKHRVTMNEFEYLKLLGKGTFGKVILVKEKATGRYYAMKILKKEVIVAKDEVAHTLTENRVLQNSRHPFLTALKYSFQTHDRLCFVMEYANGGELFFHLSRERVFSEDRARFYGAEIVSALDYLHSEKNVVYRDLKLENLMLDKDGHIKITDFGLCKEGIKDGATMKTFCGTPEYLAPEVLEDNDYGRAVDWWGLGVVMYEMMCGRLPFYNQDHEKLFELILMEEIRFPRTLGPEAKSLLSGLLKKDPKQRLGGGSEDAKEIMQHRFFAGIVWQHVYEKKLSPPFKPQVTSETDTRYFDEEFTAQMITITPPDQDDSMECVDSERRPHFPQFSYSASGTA

On to `C[C@]1(O)C[C@@](N)(c2ccc(-c3nc4n(c3-c3ccccc3)COc3cccnc3-4)cc2)C1` [Example 28, trans-3-amino-1-methyl-3-(4-(3-phenyl-5H-imidazo[1,2-c]pyrido[2,3-e][1,3]oxazin-2-yl)phenyl)cyclobutanol], for which the IC50 in assay [1] is 11 nM; in assay [2], 2 nM; in assay [3], 81 ± 9 nM; in assay [4], 131 ± 28 nM.

As for `N[C@]1(c2ccc(-c3nc4n(c3-c3ccncc3)COc3cccc(F)c3-4)cc2)C[C@](O)(C2CC2)C1` [Example 5, trans-3-amino-1-cyclopropyl-3-(4-(10-fluoro-3-(pyridin-4-yl)-5H-benzo[e]imidazo[1,2-c][1,3]oxazin-2-yl)phenyl)cyclobutanol], the IC50 worked out at 22 nM in assay [1], 0.91 nM in assay [2], 85 ± 24 nM in assay [3] and 232 ± 53 nM in assay [4].

For the compound `CCONC(=O)c1ccc2c(c1)OCn1c-2nc(-c2ccc([C@]3(N)C[C@](C)(O)C3)cc2)c1-c1ccccc1` [Example 59, 2-(4-(trans-1-amino-3-hydroxy-3-methylcyclobutyl)phenyl)-N-ethoxy-3-phenyl-5H-benzo[e]imidazo[1,2-c][1,3]oxazine-8-carboxamide], the IC50 in assay [1] came out at 2.1 nM; in assay [2] it was 0.53 nM; in assay [3], 26 ± 3 nM; in assay [4] it was 42 ± 14 nM.

Turning to `COc1cccc2c1-c1nc(-c3ccc([C@]4(N)C[C@@](O)(C5CC5)C4)cc3)c(-c3ccccc3)n1CO2` [Example 16, trans-3-amino-1-cyclopropyl-3-(4-(10-methoxy-3-phenyl-5H-benzo[e]imidazo[1,2-c][1,3]oxazin-2-yl)phenyl)cyclobutanol], the IC50 in assay [1] was 4.8 nM; in assay [2], 0.35 nM; in assay [3], 31 ± 5 nM; in assay [4], 38 ± 7 nM.

`C[C@]1(O)C[C@@](N)(c2ccc(-c3nc4n(c3-c3ccccc3)COc3ccc(C#N)cc3-4)cc2)C1` [Example 46, 2-(4-(trans-1-amino-3-hydroxy-3-methylcyclobutyl)phenyl)-3-phenyl-5H-benzo[e]imidazo[1,2-c][1,3]oxazine-9-carbonitrile]: the IC50 is 4.4 nM in assay [1], 0.97 nM in assay [2], 32 ± 5 nM in assay [3] and 53 ± 6 nM in assay [4].

In the case of `CC1(O)CC(N)(c2ccc(-c3nc4n(c3-c3ccccc3)COc3ccncc3-4)cc2)C1` (stereo not drawn) [Example 32, trans-3-amino-1-methyl-3-(4-(3-phenyl-5H-imidazo[1,2-c]pyrido[3,4-e][1,3]oxazin-2-yl)phenyl)cyclobutanol], the IC50 in assay [1] is 6.6 nM; in assay [2], 1.1 nM; in assay [3], 40 ± 3 nM; in assay [4], 62 ± 23 nM.

With `C[C@]1(O)C[C@@](N)(c2ccc(-c3nc4n(c3-c3ccccc3)COc3cnccc3-4)cc2)C1` [Example 36, trans-3-amino-1-methyl-3-(4-(3-phenyl-5H-imidazo[1,2-c]pyrido[4,3-e][1,3]oxazin-2-yl)phenyl)cyclobutanol], the IC50 came to 2 nM in assay [1], 0.74 nM in assay [2], 32 ± 6 nM in assay [3] and 36 ± 3 nM in assay [4].

For the compound `N[C@]1(c2ccc(-c3nc4n(c3-c3ccccc3)COc3cccnc3-4)cc2)C[C@](O)(C2CC2)C1` [Example 27, trans-3-amino-1-cyclopropyl-3-(4-(3-phenyl-5H-imidazo[1,2-c]pyrido[2,3-e][1,3]oxazin-2-yl)phenyl)cyclobutanol], the IC50 stood at 11 nM in assay [1], 1.6 nM in assay [2], 66 ± 10 nM in assay [3] and 100 ± 17 nM in assay [4].

For `NC1(c2ccc(-c3nc4n(c3-c3ccccc3)COc3nccnc3-4)cc2)CC(O)(C2CC2)C1` (stereo not drawn) [Example 41, trans-3-amino-1-cyclopropyl-3-(4-(3-phenyl-5H-imidazo[1,2-c]pyrazino[2,3-e][1,3]oxazin-2-yl)phenyl)cyclobutanol], the IC50 stood at 5.4 nM in assay [1], 3.3 nM in assay [2], 70 ± 16 nM in assay [3] and 100 ± 34 nM in assay [4].

Turning to `CNC(=O)c1ccc2c(c1)OCn1c-2nc(-c2ccc([C@]3(N)C[C@](C)(O)C3)cc2)c1-c1ccccc1` [Example 56, 2-(4-(trans-1-amino-3-hydroxy-3-methylcyclobutyl)phenyl)-N-methyl-3-phenyl-5H-benzo[e]imidazo[1,2-c][1,3]oxazine-8-carboxamide], the IC50 was 1.8 nM in assay [1], 0.49 nM in assay [2], 25 ± 3 nM in assay [3] and 38 ± 12 nM in assay [4].

As to `COc1ccc2c(c1)-c1nc(-c3ccc([C@]4(N)C[C@@](O)(C5CC5)C4)cc3)c(-c3ccccc3)n1CO2` [Example 17, trans-3-amino-1-cyclopropyl-3-(4-(9-methoxy-3-phenyl-5H-benzo[e]imidazo[1,2-c][1,3]oxazin-2-yl)phenyl)cyclobutanol], the IC50 was 1.8 nM in assay [1], 5.1 nM in assay [2], 33 ± 6 nM in assay [3] and 37 ± 7 nM in assay [4].

For the compound `N[C@]1(c2ccc(-c3nc4n(c3-c3ccccc3)COc3ccncc3-4)cc2)C[C@](O)(C2CC2)C1` [Example 31, trans-3-amino-1-cyclopropyl-3-(4-(3-phenyl-5H-imidazo[1,2-c]pyrido[3,4-e][1,3]oxazin-2-yl)phenyl)cyclobutanol], the IC50 was determined as 4.2 nM in assay [1], 0.78 nM in assay [2], 30 ± 5 nM in assay [3] and 51 ± 7 nM in assay [4].

Take `C[C@]1(O)C[C@@](N)(c2ccc(-c3nc4n(c3-c3ccccc3)COc3ccc(CO)cc3-4)cc2)C1` [Example 44, trans-3-amino-3-(4-(9-(hydroxymethyl)-3-phenyl-5H-benzo[e]imidazo[1,2-c][1,3]oxazin-2-yl)phenyl)-1-methylcyclobutanol]: the IC50 in assay [1] amounted to 2.2 nM; in assay [2], 0.55 nM; in assay [3], 33 ± 7 nM; in assay [4], 46 ± 17 nM.

`N[C@]1(c2ccc(-c3nc4n(c3-c3ccccc3)COc3ncccc3-4)cc2)C[C@](O)(C2CC2)C1` [Example 38, trans-3-amino-1-cyclopropyl-3-(4-(3-phenyl-5H-imidazo[1,2-c]pyrido[3,2-e][1,3]oxazin-2-yl)phenyl)cyclobutanol]: the IC50 in assay [1] worked out at 1.4 nM; in assay [2], 0.91 nM; in assay [3], 23 ± 4 nM; in assay [4] it was 34 ± 6 nM.
